Experimental findings from patent US12186290B2, “Methods for the treatment of glioblastoma multiforme” (priority 2017, dated 2025) are described below.

The nature of the data set: solubility in water. Format: physicochemical.

For `NC(=O)C(CCC(=O)[O-])NC(=O)Cc1ccccc1.[Na+]` (stereo not shown) [Iso-PG, phenylacetylisoglutaminate sodium], the solubility in water entry was “soluble in water”.
